SMILES strings stand for the structures.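 Interpolation was linear, between the two tested concentrations surrounding the appropriate level; five concentrations were tested over 48 hours in 96-well plates. The concentration for 50% growth inhibition is given as GI50. TGI is the concentration that stops growth completely.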

Test systems include CCRF-CEM leukemia; COLO 205 colon; HOP-92 NSCLC; KM12 colon; M14 melanoma; NCI-H460 lung; NCI-H522 lung; UACC-257 melanoma; MCF7 breast; T-47D breast.
Common to all, as to experiment: NCI tumour cell line growth inhibition, 48 h

As to `Cc1c(C(=O)CC(=O)C(=O)Nc2ccc(Cl)cc2)[n+](=O)c2ccccc2n1[O-]`, the TGI with CCRF-CEM leukemia, in the assay on COLO 205 colon, in the assay with HOP-92 NSCLC, in the assay with KM12 colon, in the assay on M14 melanoma and in the assay with NCI-H460 lung was above 100 µM throughout. Also, the TGI with NCI-H522 lung and in the assay with UACC-257 melanoma was above 100 µM each time.

Regarding `COc1ccc(/C(=N\O)c2cc(C)c(OC)c(C)c2)cc1O`, the GI50 is 0.0185 µM in the assay with CCRF-CEM leukemia; 0.41 µM in the assay on HOP-92 NSCLC; below 0.01 µM in the assay on KM12 colon; below 0.01 µM in the assay on M14 melanoma; below 0.01 µM in the assay on MCF7 breast; below 0.01 µM with NCI-H460 lung. For the same molecule, in the assay with NCI-H522 lung, the GI50 is below 0.01 µM. The TGI in the assay on CCRF-CEM leukemia is above 100 µM; in the assay with HOP-92 NSCLC it was above 100 µM; in the assay on KM12 colon, above 100 µM; with M14 melanoma, above 100 µM; in the assay with MCF7 breast, above 100 µM; with NCI-H460 lung, 15.6 µM. In the assay on NCI-H522 lung, this molecule came in with a TGI of 0.0101 µM.

With `Cc1ccc(NC(=O)C(=O)CC(=O)c2c(C)n([O-])c3ccccc3[n+]2=O)cc1`, the TGI in the assay with CCRF-CEM leukemia was 49 µM; with COLO 205 colon, 55.2 µM; in the assay on HOP-92 NSCLC it was above 100 µM; with KM12 colon, above 100 µM; in the assay with M14 melanoma, 60.1 µM; with NCI-H460 lung, 77.4 µM. Moreover, the TGI in the assay with NCI-H522 lung worked out at 46.1 µM; with UACC-257 melanoma, 50.7 µM.

Consider `COc1ccc(S(=O)(=O)N/N=C/c2cc(I)cc([N+](=O)[O-])c2O)cc1OC`, for which the TGI with CCRF-CEM leukemia was above 100 µM; with COLO 205 colon, above 100 µM; in the assay with HOP-92 NSCLC it was 46 µM; in the assay on KM12 colon, above 100 µM; with M14 melanoma, above 100 µM; in the assay with NCI-H460 lung, above 100 µM. This molecule also showed a TGI in the assay with UACC-257 melanoma above 100 µM.

In the case of `COc1ccccc1C1c2cc3c(cc2OC(O)(CO)C1C(=O)O)OCO3` (stereo unspecified) (tested in a mixture with another compound), the TGI in the assay with CCRF-CEM leukemia, in the assay on COLO 205 colon, with HOP-92 NSCLC, in the assay on KM12 colon, in the assay with M14 melanoma and with NCI-H460 lung was above 100 µM in each case. For the same molecule, the TGI with UACC-257 melanoma is above 100 µM.

Consider `COc1ccc(CC(=O)NCCc2ccc(OC)c(OC)c2)cc1Br`, for which the TGI in the assay on CCRF-CEM leukemia, with COLO 205 colon, with HOP-92 NSCLC, with KM12 colon, with NCI-H460 lung and in the assay on NCI-H522 lung was above 100 µM each time. In the assay with UACC-257 melanoma, the TGI is above 100 µM.

Turning to `C=C1C(=O)O[C@H]2[C@H]1CCC(/C=N/c1ncc(Br)cc1N)=C\CC[C@@]1(C)O[C@@H]21`, the GI50 with CCRF-CEM leukemia was 0.429 µM; in the assay with COLO 205 colon, 1.65 µM; with HOP-92 NSCLC, 1.31 µM; in the assay with KM12 colon it was 5.07 µM; with M14 melanoma, 1.89 µM; with NCI-H460 lung it was 5.81 µM. Moreover, the GI50 with NCI-H522 lung was 0.781 µM; in the assay on T-47D breast, 1.55 µM; in the assay on UACC-257 melanoma, 1.8 µM. The TGI in the assay with CCRF-CEM leukemia was 10.8 µM; in the assay with COLO 205 colon, 3.59 µM; in the assay with HOP-92 NSCLC, 3.74 µM; in the assay with KM12 colon it was 20.2 µM; in the assay on M14 melanoma, 5.36 µM; in the assay on NCI-H460 lung it was 22.3 µM. Further, the results for the TGI in the assay on NCI-H522 lung, with T-47D breast and in the assay with UACC-257 melanoma were 2.6 µM, 4.9 µM and 4.45 µM, respectively.

In the case of `FC(F)(F)c1ccc(C#Cc2ccccc2C#Cc2ccccc2)cc1`, the GI50 is 26 µM with CCRF-CEM leukemia; 34.3 µM in the assay on COLO 205 colon; 31.4 µM in the assay with KM12 colon; 44.3 µM in the assay on M14 melanoma; 22.5 µM in the assay with MCF7 breast; 41.1 µM in the assay on NCI-H460 lung. In addition, the GI50 was 21.4 µM in the assay with NCI-H522 lung, 26.2 µM in the assay on T-47D breast and 69.5 µM in the assay with UACC-257 melanoma. Moreover, the TGI was 61.6 µM in the assay on CCRF-CEM leukemia; above 100 µM in the assay on COLO 205 colon; above 100 µM with KM12 colon; above 100 µM in the assay with M14 melanoma; 89.8 µM in the assay with MCF7 breast; above 100 µM with NCI-H460 lung. Moreover, the TGI in the assay with NCI-H522 lung was 45.4 µM; in the assay on T-47D breast, 60.1 µM; in the assay on UACC-257 melanoma it was above 100 µM.

Turning to `CC(=O)OCC(=O)[C@@]12OC(C)(C)O[C@@H]1C[C@H]1[C@@H]3CC=C4C[C@@H](O)CC[C@]4(C)[C@H]3CC[C@@]12C`, the TGI with CCRF-CEM leukemia, in the assay on COLO 205 colon, with KM12 colon, with M14 melanoma, in the assay on MCF7 breast and in the assay with NCI-H522 lung was above 100 µM throughout. In addition, the TGI in the assay with T-47D breast and in the assay on UACC-257 melanoma was above 100 µM each time.

On to `CN1CC[C@]2(C)c3cc(O)ccc3CC3CCCC1C32C` (stereo partly specified), for which the TGI in the assay with CCRF-CEM leukemia, with COLO 205 colon, in the assay on HOP-92 NSCLC, in the assay with KM12 colon, in the assay with M14 melanoma and in the assay with NCI-H460 lung was above 100 µM each time. The TGI with NCI-H522 lung and in the assay on UACC-257 melanoma was above 100 µM in each case.

In the case of `C=C1C(=O)OC2C=C(CCC(C)=O)C(C)C(OC(C)=O)CC12` (stereo unspecified), the TGI in the assay with CCRF-CEM leukemia came out at 12.4 µM; with HOP-92 NSCLC it was 12.9 µM; in the assay with KM12 colon, 30.5 µM; with M14 melanoma it was 20.7 µM; in the assay with NCI-H460 lung it was 40.6 µM.

On to `COc1ccc(S(=O)(=O)Nc2cc(/C=C\c3cc(OC)c(OC)c(OC)c3)ccc2OC)cc1`, for which the GI50 is 0.176 µM in the assay with CCRF-CEM leukemia; 0.0383 µM in the assay with COLO 205 colon; 0.0974 µM in the assay with HOP-92 NSCLC; 0.0738 µM in the assay on KM12 colon; 0.103 µM in the assay with M14 melanoma; 0.0426 µM in the assay on MCF7 breast. Besides, the GI50 with NCI-H460 lung was 0.178 µM; with NCI-H522 lung it was 0.0204 µM; in the assay on UACC-257 melanoma it was 2.98 µM. In addition, the TGI is above 100 µM in the assay on CCRF-CEM leukemia; 0.158 µM with COLO 205 colon; 12 µM with HOP-92 NSCLC; above 100 µM in the assay on KM12 colon; above 100 µM in the assay on M14 melanoma; above 100 µM in the assay with MCF7 breast. Further, the values for the TGI in the assay on NCI-H460 lung, in the assay with NCI-H522 lung and with UACC-257 melanoma were 11.7 µM, 0.0564 µM and 93.4 µM, respectively.

These data come from PubChem BioAssay (NCI).
